# Measurements taken from patent US8168617B2, “Complex pantoic acid ester neopentyl sulfonyl ester cyclization release prodrugs of acamprosate, compositions thereof, and methods of use” (XenoPort, Inc., priority 2007, dated 2012).
# Experiments:
# [1] = rat, in vivo
# Description: Rats were obtained commercially and were pre-cannulated in the jugular vein. Animals were conscious at the time of the experiment. All animals were fasted overnight and until 4 hours post-dosing of a prodrug of Formula (I).
# Rat blood samples (0.3 mL/sample) were collected from all animals prior to dosing and at different time-points up to 24 h post-dose into tubes containing EDTA. Two aliquots (100 μL each) were quenched with 300 μL methanol and stored at −20° C. prior to analysis.
# To prepare analysis standards, 90 μL of rat blood was quenched with 300 μL methanol followed by 10 μL of spiking standard and/or 20 μL of internal standard. The sample tubes were vortexed for at least 2 min and then centrifuged at 3400 rpm for 20 min. […]
# LC-MS-MS analysis was performed using an API 4000 equipped with Agilent 1100 HPLC and a Leap Technologies autosampler. […] Acamprosate was monitored in negative ion mode. […] Prodrug was monitored in positive ion mode. […]
# The percent relative bioavailability (F %) of acamprosate was determined by comparing the area under the acamprosate concentration vs time curve (AUC) following oral or colonic administration of an acamprosate prodrug or acamprosate with the AUC of the acamprosate concentration vs time curve following intravenous administration of acamprosate on a dose normalized basis.
# [2] = post-dose; doses about 1-2 gm per day; cited from earlier work
# cocaine conditioned mice = settings: 100 mg/kg acamprosate for 3 days; cited from earlier work
acamprosate colonic bioavailability relative to the acamprosate colonic bioavailability of an equivalent dose of acamprosate itself [1],acamprosate oral bioavailability relative to the acamprosate oral bioavailability of an equivalent dose of acamprosate itself [1],SMILES,time at which steady-state plasma concentration occurs [2] [h],relapse-like behavior (cocaine conditioned mice)
at least 5 times,at least 5 times,"CC(=O)NCCCS(=O)(=O)OCC(C)(C)[C@@H](O)C(=O)OC(C)OC(=O)OC(C)C (stereo partly drawn) [Compound 40, (Methylethoxycarbonyloxy)ethyl (2R)-4-{[3-(acetylamino)propyl]sulfonyloxy}-2-hydroxy-3,3-dimethylbutanoate]",–,–
–,–,"CC(=O)NCCCS(=O)(=O)O [acamprosate, 3-(Acetylamino)propylsulfonic acid]",3 to 8,attenuated relapse-like behavior
